{"source": "paper PMC5067538", "about": "(Frontiers in Microbiology, 2016)", "key": {"[1]": {"biological_target": "T1, PrbP/RpoB (two-hybrid, PrbP with RpoB 21-150) (Candidatus Liberibacter asiaticus, UniProt A0ABM5NE52)", "T1 construct": "gene WSI_01420", "details": "E. coli TOP10, 240 min, 37 °C, inhibition of PrbP/RpoB interaction, indirect reporter"}, "PrbP (CLIBASIA_01510)": {"biological_target": "T2, PrbP (CLIBASIA_01510) (Candidatus Liberibacter asiaticus, UniProt A0ABM5NE52)", "T2 construct": "gene WSI_01420", "details": "2.5 µM PrbP, 1 ng biotin-labelled rplK promoter probe, 10 mM HEPES pH 7.5, 150 mM NaCl, 37 °C"}}, "note": "Read-outs that look alike come from different tables or passages of the source."}
{"smiles": "CN(C)Cc1c[nH]c2ccccc12", "note": "[Gramine]", "values": [{"measurement": "β-galactosidase activity^d (% decrease)", "setting": "[1]; 40 µM compound", "result": "15.3 ± 0.3", "unit": "%"}]}
{"smiles": "Cc1ncc([N+](=O)[O-])n1CCO", "note": "[Metronidazole]", "values": [{"measurement": "β-galactosidase activity^d (% decrease)", "setting": "[1]; 50 µM compound", "result": "53.7 ± 10", "unit": "%"}]}
{"smiles": "Cc1c(Cl)cccc1Nc1ccccc1C(=O)O", "note": "[Tolfenamic acid]", "values": [{"measurement": "β-galactosidase activity^d (% decrease)", "setting": "[1]; 25 µM compound", "result": "17.5 ± 5.3", "unit": "%"}, {"measurement": "complete disruption", "setting": "PrbP (CLIBASIA_01510)", "result": 350, "unit": "µM"}]}
